Source: ChEMBL document CHEMBL6120994, “Unravelling the potential of natural chelating agents in the control of Staphylococcus aureus and Pseudomonas aeruginosa biofilms” (Eur J Med Chem, 2025)
Calls of active or inactive are those of the source. The rule behind the calls is not given here.

Legend:
[1] = system: Staphylococcus aureus; assay: Antibacterial activity against Staphylococcus aureus CECT 976 assessed as inhibition of bacterial growth incubated for 24 hrs by broth microdilution method; type: functional
[2] = Metal chelating activity at iron(III) in chrome azurol sulphonate solution incubated for 30 mins by spectrophotometric analysis; conditions: dose 6.25-1000 µg/ml
[3] = system: Pseudomonas aeruginosa; assay: Antibacterial activity against Pseudomonas aeruginosa ATCC 10145 assessed as inhibition of bacterial growth by measuring inhibition zone diameter at 100 ug/ml incubated for 24 hrs in presence of tetracycline by disc diffusion method (reference value: 2 mm); type: functional; conditions: read-out: DIZ
[4] = system: Staphylococcus aureus; assay: Antibacterial activity against Staphylococcus aureus CECT 976 assessed as inhibition of bacterial growth by measuring inhibition zone diameter at 1000 ug/ml incubated for 24 hrs in presence of tetracycline by disc diffusion method (reference value: 24 +/- 1.41 mm); type: functional; conditions: read-out: DIZ
[5] = system: Staphylococcus aureus; assay: Antibacterial activity against Staphylococcus aureus CECT 976 assessed as inhibition of bacterial growth by measuring inhibition zone diameter at 1000 ug/ml incubated for 24 hrs in presence of methicillin by disc diffusion method (reference value: 19.5 +/- 1.29 mm); type: functional; conditions: read-out: DIZ
[6] = system: Staphylococcus aureus; assay: Antibacterial activity against Staphylococcus aureus CECT 976 assessed as inhibition of bacterial growth by measuring inhibition zone diameter at 1000 ug/ml incubated for 24 hrs in presence of fusidic acid by disc diffusion method (reference value: 27.75 +/- 0.5 mm); type: functional; conditions: read-out: DIZ
[7] = system: Staphylococcus aureus; assay: Antibiotic adjuvant activity against Staphylococcus aureus CECT 976 assessed as potentiation of tobramycin-induced antibacterial activity by measuring tobramycin MIC at 62.5 ug/ml measured after 24 hrs by checkerboard assay (reference value: 4 ug/ml); type: functional; conditions: dose 62.5 µg/ml
[8] = system: Pseudomonas aeruginosa; assay: Antibiotic adjuvant activity against Pseudomonas aeruginosa ATCC 10145 assessed as potentiation of ciprofloxacin-induced antibacterial activity by measuring fractional inhibitory concentration index (MIC) at 15.6 ug/ml measured after 24 hrs by checkerboard assay; type: functional; conditions: dose 15.6 µg/ml
[9] = system: Staphylococcus aureus; assay: Antibiotic adjuvant activity against Staphylococcus aureus CECT 976 assessed as potentiation of tobramycin-induced antibacterial activity by measuring fractional inhibitory concentration index (MIC) at 62.5 ug/ml measured after 24 hrs by checkerboard assay; type: functional; conditions: dose 62.5 µg/ml
[10] = system: Pseudomonas aeruginosa; assay: Antibiotic adjuvant activity against Pseudomonas aeruginosa ATCC 10145 assessed as potentiation of ciprofloxacin-induced antibiofilm activity by measuring reduction in biomass production at 500 ug/ml measured after 24 hrs in presence of 1/16XMIC ciprofloxacin by cystal violet staining method (reference value: 36%); type: functional
[11] = system: Pseudomonas aeruginosa; assay: Antibiotic adjuvant activity against Pseudomonas aeruginosa ATCC 10145 assessed as potentiation of ciprofloxacin-induced antibiofilm activity by measuring reduction in metabolic activity of biofilm cells at 500 ug/ml in presence of ciprofloxacin by resazurin staining based fluorescence analysis; type: functional, organism-based; conditions: dose 500.0 µg/ml
[12] = system: Staphylococcus aureus; assay: Antibiofilm activity against Staphylococcus aureus CECT 976 assessed as reduction in biomass production at 500 to 1000 ug/ml measured after 24 hrs by crystal violet staining method; type: functional; conditions: dose 500-1000 µg/ml, at 500 to 1000 µg/mL
[13] = system: Staphylococcus aureus; assay: Antibiofilm activity against Staphylococcus aureus CECT 976 assessed as reduction in metabolic activity of biofilm cells at 500 to 1000 ug/ml by resazurin staining based fluorescence analysis; type: functional; conditions: dose 500-1000 µg/ml; at 500 to 1000 µg/mL
[14] = system: Pseudomonas aeruginosa; assay: Antibiotic adjuvant activity against preestablished 24-hr old Pseudomonas aeruginosa ATCC 10145 assessed as potentiation of ciprofloxacin-induced antibiofilm activity by measuring reduction of biomass at 1000 ug/ml measured after 24 hrs in presence of 1/8XMIC ciprofloxacin by crystal violet staining method; type: functional, organism-based; conditions: dose 1000.0 µg/ml
[15] = system: Cell membrane; assay: Disruption of membrane integrity in pre-established 24 hr-old Staphylococcus aureus CECT 976 biofilm at 10XMTC measured after 24 hrs by PI staining based flow cytomtery; type: subcellular
[16] = system: Cell membrane; assay: Disruption of membrane integrity in pre-established 24 hr-old Staphylococcus aureus CECT 976 assessed as PI uptake at 10000 ug/ml measured after 24 hrs in presence of 1/4XMIC to MIC tobramycin by PI staining based flow cytometry; type: subcellular; conditions: dose 10000.0 µg/ml
[17] = system: Cell membrane; assay: Disruption of membrane integrity in pre-established 24 hr-old Staphylococcus aureus CECT 976 biofilm at 10XMTC measured after 24 hrs by SYTO9/PI dye based epifluorescence microscopy; type: subcellular
[18] = system: Staphylococcus aureus; assay: Inhibition of virulence production in Staphylococcus aureus CECT 976 biofilms assessed as diameter of gelatinases halo at 1/2XMTC measured after 48 hrs in presence of 1/8XMIC tobramycin (reference value: 11.3 to 12 mm); type: functional
[19] = system: Staphylococcus aureus; assay: Inhibition of virulence production in Staphylococcus aureus CECT 976 biofilms assessed as diameter of lipases halo at 1XMTC measured after 48 hrs (reference value: 11.8 to 12.5 mm); type: functional
[20] = system: Staphylococcus aureus; assay: Inhibition of virulence production in Staphylococcus aureus CECT 976 biofilms assessed as diameter of lipases halo at 1/2XMTC measured after 48 hrs in presence of 1/4XMIC tobramycin (reference value: 12.3 to 13.5 mm); type: functional
[21] = system: Staphylococcus aureus; assay: Inhibition of virulence production in Staphylococcus aureus CECT 976 biofilms assessed as diameter of protease halo at 1/2XMTC measured after 72 hrs in presence of 1/4XMIC tobramycin (reference value: 11.5 to 12.3 mm); type: functional
[22] = system: Staphylococcus aureus; assay: Inhibition of virulence production in pre-established 24 hr-old Staphylococcus aureus CECT 976 biofilms assessed as diameter of lipases halo at 1XMTC measured after 48 hrs (reference value: 11.5 to 11.8 mm); type: functional
[23] = system: Staphylococcus aureus; assay: Inhibition of virulence production in pre-established 24 hr-old Staphylococcus aureus CECT 976 biofilms assessed as diameter of lipases halo at 10XMTC measured after 48 hrs (reference value: 11.8 to 12 mm); type: functional
[24] = system: Staphylococcus aureus; assay: Inhibition of virulence production in pre-established 24 hr-old Staphylococcus aureus CECT 976 biofilms assessed as diameter of lipases halo at 10XMTC measured after 48 hrs in presence of 1/4XMIC tobramycin (reference value: 11.5 +/-0.6 mm); type: functional
[25] = system: Staphylococcus aureus; assay: Inhibition of virulence production in pre-established 24 hr-old Staphylococcus aureus CECT 976 biofilms assessed as diameter of lipases halo at 10XMTC measured after 48 hrs in presence of 1XMIC tobramycin (reference value: 11.8 to 12.3 mm); type: functional
[26] = system: Staphylococcus aureus; assay: Inhibition of virulence production in pre-established 24 hr-old Staphylococcus aureus CECT 976 biofilms assessed as diameter of siderophores halo at 10XMTC measured after 48 hrs (reference value: 11.5 to 11.8 mm); type: functional
[27] = system: Staphylococcus aureus; assay: Inhibition of virulence production in pre-established 24 hr-old Staphylococcus aureus CECT 976 biofilms assessed as diameter of siderophores halo at 10XMTC measured after 48 hrs in presence of 1/2XMIC tobramycin (reference value: 11.8 +/-0.5 mm); type: functional
[28] = system: HepG2; assay: Cytotoxicity against human HepG2 cells assessed as cell mass by measuring SRB binding at 93.5 to 1000 ug/ml measured after 24 hrs by SRB assay; type: toxicity, cell-based; conditions: hepg2, 24 h, at 93.5 to 1000 µg/mL, dose 93.5-1000 µg/ml

Row | Structure (SMILES) | MIC [1] | Activity [2] | zone of inhibition at 100 µg/mL [3] | zone of inhibition at 1000 µg/mL [4] | zone of inhibition at 1000 µg/mL [5] | zone of inhibition at 1000 µg/mL [6] | MIC [7] | fractional inhibitory concentration index (FICI) [8] | fractional inhibitory concentration index (FICI) [9] | inhibition at 500 µg/mL [10] | Activity [11] | inhibition (INH) [12] | inhibition (INH) [13] | Activity [14] | Activity [15] | Activity [16] | Activity [17] | Activity [18] | Activity [19] | Activity [20] | also measured
1 | O=c1cc(CO)occ1O [KOJIC ACID] | > 1000 µg/mL | Dose-dependent-effect | 5 mm | 27.2 mm | 16 mm | 26.8 mm | 1 µg/mL | 0.5 | 0.3 | 60% | inactive | 26% | 40% | inactive | 90% | 50% | inactive | 0 mm | 3.3 mm | 2 mm | Activity [21]: 0 mm; Activity [22]: 2.3 mm; Activity [23]: 2.5 mm; Activity [24]: 2.5 mm; Activity [25]: 2 mm; Activity [26]: 9.3 mm; Activity [27]: 10 mm; Activity [28]: > 90%
2 | Cc1occc(=O)c1O [MALTOL] | > 1000 µg/mL | Dose-dependent-effect | 3.5 mm | 25.8 mm | 15.5 mm | 28.2 mm | 1 µg/mL | 0.5 | 0.3 | 60% | inactive | 26% | 40% | inactive | 90% | 50% | inactive | 0 mm | 3 mm | 2.3 mm | Activity [21]: 0 mm; Activity [22]: 2.8 mm; Activity [23]: 2.5 mm; Activity [24]: 2.3 mm; Activity [25]: 2.3 mm; Activity [26]: 10 mm; Activity [27]: 10 mm; Activity [28]: > 90%
